Values quoted from earlier work in publication PMC10649572 (International Journal of Molecular Sciences, 2023).
No end group written: not given here.

Target: T1, CaM^WT (Homo sapiens, UniProt P0DP23)
T1 construct: made in house; host or cells: Escherichia coli BL21-CodonPlus(DE3)
Settings: in the presence and absence of Ca^2+; ref [38]

interaction with CaM: significant affinity
Sequence: LMRMLSLKSLKKQMKKV [Peptide F]
